Measurements reported in article PMC8669712, “G Protein-Coupled Receptor GPR35 Suppresses Lipid Accumulation in Hepatocytes” (ACS Pharmacology & Translational Science, 2021).
Where “and” joins values, the source holds several entries; their conditions need not be identical. Identical values can stand only once. Entries after “also recorded” stand apart in the source; their conditions may differ.

Assays:
[1] = target: mouse GPR35 (Mus musculus, UniProt Q9ES90); test: β-arrestin-based interaction assay, agonist potency at mouse GPR35; format: cell-based
Chain of mouse GPR35 (Q9ES90 whole entry): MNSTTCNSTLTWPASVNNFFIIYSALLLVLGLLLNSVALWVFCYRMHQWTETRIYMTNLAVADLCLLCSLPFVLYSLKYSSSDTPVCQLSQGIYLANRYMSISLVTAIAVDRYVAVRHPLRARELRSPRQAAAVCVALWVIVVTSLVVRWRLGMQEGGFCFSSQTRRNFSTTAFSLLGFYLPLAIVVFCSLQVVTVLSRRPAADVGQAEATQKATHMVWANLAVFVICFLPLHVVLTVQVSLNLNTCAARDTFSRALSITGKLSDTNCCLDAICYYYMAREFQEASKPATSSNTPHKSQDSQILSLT

[2] = tested on: HepG2 cells; test: Label-free cellular impedance assay (xCELLigence) in HepG2 cells; format: cell-based, human
Description: (§1) HepG2 cells were seeded onto xCELLigence E plates (2 × 10^4 cells/well) and incubated for 24 h at 37 °C. To evaluate GPR35 activation and its downstream G protein signaling, HepG2 cells or primary mouse hepatocytes were exposed to GPR35 antagonists or G protein inhibitors 1 h (overnight for Pertussis toxin) prior to GPR35 agonist stimulation. After the addition of GPR35 agonist or vehicle control, the impedance (represented as “cell index”) was recorded every 30 s over a 2 h period using xCELLigence RTCA (Agilent). Each experiment was repeated at least three times.

[3] = tested on: GPR35 genome-edited HepG2 clones; test: Label-free cellular impedance assay in GPR35 genome-edited HepG2 clones 19 and 27; format: cell-based, human; details: 1 × 10^–5 M
Text: Expression of full-length mRNA from the GPR35 gene was eliminated using a dual synthetic gRNA/RNP approach[43] with one guide cutting the intron and one in the exon region to generate a nonfunctional GPR35 protein. The gRNAs were designed with the CRISPR Finder (Welcome Sanger Institute). HepG2 cells were transfected with the Neon Transfection System from Thermo Fisher Scientific (Waltham, MA), according to the manufacturer’s instructions. Briefly, CrRNA and tracrRNA were annealed to gRNA at 95 °C for 5 min. Next, cells were transfected with gRNA, Cas9, and the electroporation enhancer, according to the manufacturer’s instructions. All crRNAs, tracrRNA, SpCas9 nuclease, and the electroporation enhancer were purchased from Integrated DNA Technologies (Coralville, IA). Transfected cells were plated and analyzed for editing efficiency 24–48 h after electroporation. Single-cell clones were generated by single-cell FACS sorting. Clones were expanded and to access editing efficiency, genomic DNA from cell clones was extracted and subjected to PCR to confirm the genome deletion. To further quantify and capture the genomic DNA deletion, PCR primers listed in Table S1 were designed to amplify the genomic DNA surrounding the target site. The PCR primers were linked to the sequences of the Illumina Nextera adapters. The amplified PCR products were subjected to paired-end sequencing using NextSeq500 from Illumina using paired-end chemistry with a 150-bp read length. In addition, mRNA from KO clones was isolated and subjected to RT-PCR. To further confirm the abrogation of GPR35 activation in CRISPR KO clones, KO cells were seeded onto xCELLigence E plates (2 × 10^4 cells/well) for 24 h at 37 °C prior to the treatment of GPR35 agonists. The impedance was recorded using xCELLigence RTCA. […]
HepG2 cells were seeded onto xCELLigence E plates (2 × 10^4 cells/well) and incubated for 24 h at 37 °C. […] After the addition of GPR35 agonist or vehicle control, the impedance (represented as “cell index”) was recorded every 30 s over a 2 h period using xCELLigence RTCA (Agilent). […]

[4] = tested on: clone 27 HepG2 cells transfected with human GPR35a; test: Cellular impedance in clone 27 cells transiently transfected with human GPR35a; format: cell-based; details: lodoxamide 1 × 10^–8 M
Description: (§2) Briefly, CRISPR KO cells were transiently transfected 24 h with the human GPR35a expression vector using LipofectAMINE 3000 reagent, according to the manufacturer’s instructions. […] Alternatively, after 24 h transfection, cells were seeded onto a 12-well plate (1 × 10^5 cells/well) for 24 h at 37 °C. Then, cells were incubated with T0901317 and/or GPR35 agonists (in MEM containing 5% FBS) for 72 h. After the drug treatment, cells were stained with Oil Red O to examine the levels of lipid accumulation. Each experiment was repeated at least three times.
as §1

[5] = tested on: GPR35a-reconstituted clone 27 HepG2 cells; test: Oil Red O lipid accumulation in GPR35a-reconstituted clone 27 cells; format: cell-based, human; details: clone 27, 72 h
Description: as §2
Lipid accumulation was measured by Oil Red O staining. A working solution of Oil Red O was prepared, as described with modification.[46] After drug treatment, cells were washed with PBS and fixed with formalin solution for 1 h at 4 °C. Then, cells were stained with Oil Red O working solution for 10 min at room temperature. After PBS washing, Oil Red O was extracted from cells using 150 μl of isopropanol and OD510 nm measured. […] These cells were then stained with Hoechst 33342 (1 μg/mL) and the fluorescence intensity of Hoechst (represents the DNA content in cells) was measured using a CLARIOstar plate reader (BMG LABTECH). Oil Red O accumulation was corrected for differences in DNA content and expressed as relative absorbency, taking the control condition (treated with vehicle only) as 1.

[6] = tested on: hepatocytes from hGPR35a-HA-expressing mice; test: Oil Red O lipid accumulation in hepatocytes from hGPR35a-HA-expressing mice; format: cell-based, mouse
Description: All mice were bred as WT or homozygous onto a C57BL/6N background. Animals were cared for in accordance with national guidelines on animal experimentation. All animal experiments were conducted under a home office license held by the authors. WT, humanized GPR35a, or KO male mice at 3–4 months of age were used in this study. These mice were fed ad libitum with a standard mouse chow diet. Briefly, mouse primary hepatocytes were isolated using a two-step collagenase perfusion technique.[45] Twelve-well plates or xCELLigence E plates were coated with rat tail collagen I solution (Thermo Fisher Scientific) overnight at 37 °C and washed with PBS. Isolated primary hepatocytes were seeded onto 12-well plates (8 × 10^4 cells/well) or xCELLigence E plates (2 × 10^4 cells/well) in Wiliam’s E medium (Thermo Fisher Scientific) supplemented with 10% fetal bovine serum (FBS) and 1× penicillin/streptomycin. Cells were maintained for 7 days with a fresh medium change every other day. […] Human GPR35 activation was examined using xCELLigence RTCA assay. To access the impact of GPR35 agonists on the lipid accumulation, WT and humanized GPR35 hepatocytes were incubated with T0901317 and/or GPR35 agonists/antagonists, as indicated (in DMEM medium containing 5% FBS and 1.5% BSA) for 48 h. Alternatively, GPR35 KO hepatocytes were incubated with drugs, as indicated for 5 days. In the T0901317 pretreatment model, human GPR35 hepatocytes were stimulated with T0901317 for 2 days and then further treated with lodoxamide for a further 3 days. After each drug treatment, hepatocytes were stained with Oil Red O and quantified as described. Each experiment was repeated at least three times.
Lipid accumulation was measured by Oil Red O staining. A working solution of Oil Red O was prepared, as described with modification.[46] After drug treatment, cells were washed with PBS and fixed with formalin solution for 1 h at 4 °C. Then, cells were stained with Oil Red O working solution for 10 min at room temperature. After PBS washing, Oil Red O was extracted from cells using 150 μl of isopropanol and OD510 nm measured. After the lipid extraction, cells were further soaked in PBS overnight at 4 °C. These cells were then stained with Hoechst 33342 (1 μg/mL) and the fluorescence intensity of Hoechst (represents the DNA content in cells) was measured using a CLARIOstar plate reader (BMG LABTECH). Oil Red O accumulation was corrected for differences in DNA content and expressed as relative absorbency, taking the control condition (treated with vehicle only) as 1.

[7] = tested on: primary mouse hepatocytes; set-up: method as in Nam et al. 37; details: ref Nam et al. 37; read-out: EC50 to limit lipid accumulation in mouse hepatocytes; cited from earlier work
[8] = tested on: high-fat diet-induced wild-type mice; set-up: method as in PMID 31189299; details: oral, 1 mg/kg, final 7 days of a 7-week-diet exposure; cited from earlier work

N#Cc1cc(NC(=O)C(=O)O)c(Cl)c(NC(=O)C(=O)O)c1 [lodoxamide, 2-[2-chloro-5-cyano-3-(oxaloamino)anilino]-2-oxoacetic acid]
fold lower potency at mouse GPR35 than at human GPR35 ([1]; mouse versus human GPR35): ~450 fold and ~500 fold
EC50 ([1]; β-arrestin-based interaction assay, read-out: mouse GPR35, pEC50 (converted)): 1910 nM
impedance signal in parental HepG2 cells ([2]; 1 × 10^–5 M): produced positive signals
time for the impedance signal to reach a plateau ([2]; HepG2 cells, lodoxamide 1 × 10^–8 M): ≤ 5 min
impedance signal in GPR35 genome-edited clones 19 and 27 [3]: not in either clone 19 or 27
impedance signal in clone 27 cells transfected with human GPR35a [4]: stimulated signal
lipid accumulation induced by T0901317 in GPR35a-reconstituted cells [5]: again able to prevent the lipid accumulation
EC50 ([6]; Mus musculus, Hepatocyte, hepatocytes from hGPR35a-HA-expressing mice, co-addition with T0901317 8 × 10^–6 M, 48 h, read-out: EC50 for prevention of T0901317-induced lipid accumulation): 17 nM
reversal of pre-established lipid accumulation ([6]; T0901317 8 × 10^–6 M for 2 days, then lodoxamide added with continued T0901317): sufficient to reduce lipid levels to those observed in the absence of T0901317; also recorded: reduced to basal
potency in the reversal setting relative to co-addition ([6]; T0901317 pretreatment model): less potent than when added alongside T0901317
EC50 [7]: 6.1 nM
effect of treatment in high-fat diet-induced wild-type mice [8]: beneficial effects
